The results in this text go back to patent publication US10745735B2 (priority 2013, dated 2020).

Experiment [1] deals with Listeria innocua strains HPB 34 and 118. The experiment in a line: Metabolic labeling of Listeria innocua with HPG, Alexa488-azide, fluorescence microscopy. In kind it is cell-based. Particulars: HPG 100 μg/ml, HTM minimal medium, 16 h at 30° C. The procedure: In addition to gram negative E. coli strains, gram positive Listeria strains were investigated to probe the diversity of bacteria susceptible to this labeling strategy. Two strains of Listeria innocua were cultured in HTM minimal medium containing the methionine biosynthesis inhibition amino acids, in the presence of methionine (100 μg/ml) or HPG (100 μg/ml) for 16 h at 30° C., then reacted with Alexa488-azide as described earlier.

Experiment [2] deals with BL21 E. coli. The experiment in a line: Capture of HPG-labeled, biotin-azide reacted E. coli on streptavidin-coated magnetic beads. The experiment is classed as cell-based. The note with it: biotin-azide 100 μM, M280 Dynabeads 1 hour. An excerpt:
(§1) FIG. 6: Capture via unnatural amino acid metabolic labeling of live gram negative (E. coli) and gram positive (L. innocua) bacteria.
(§2) E. coli and L. innocua cells metabolically labeled by HPG were further investigated to determine if they could be captured on a surface via the incorporated amino acid analogue.

A further experiment relates to K12 E. coli. The experiment in a line: Immunocapture with anti-E. coli antibody beads and HPG metabolic labeling of K12 E. coli. The experiment is classed as cell-based. The note with it: 30 minutes in M9 media, anti-E. coli antibody beads, Alexa488-azide. The procedure: FIG. 11: Metabolic label incorporation, immunocapture and fluorescence identification of live K12 strain E. coli. […] M280 streptavidin-coated magnetic beads treated with PBS (“Untreated”) or PBS containing biotin-tagged Anti-E. coli antibody were then added to the culture for 1 hour before the beads were washed in PBS and reacted with Alexa488-azide to fluorescently label surface proteins. Fluorescence levels are adjusted above background detected for cells grown in the presence of methionine.
Metabolic labeling is compatible with strain-specific immunocapture using magnetic beads coated with antibodies directed to specific bacteria. This method has the potential to concentrate specific strains of bacteria from food or water samples, while simultaneously allowing bacteria to acquire the functionalized biomolecular precursor and incorporate it in target biomolecules. Captured bacteria are then identified as living or dead by a subsequent bioorthogonal reaction and detection by fluorescence microscopy. […] M280 magnetic beads treated with PBS or biotin-tagged anti-E. coli antibody were co-incubated with the E. coli. Bacteria/bead aggregates were washed in PBS, then reacted with Alexa488-azide to fluorescently identify living bacteria captured on the M280 magnetic beads.

Experiment [3] deals with BL21 E. coli. Description: Dual metabolic labeling (HPG and KDO-azide) of BL21 E. coli, fluorescence and bead capture. In kind it is cell-based. The note with it: HPG and KDO-azide together. The procedure: FIG. 10: Dual metabolic label incorporation, fluorescence labeling and capture of live lab strain E. coli. […] The cells were first reacted with biotin-azide to biotinylate surface proteins, then reacted with Alexa488-alkyne to fluorescently label LPS molecules. Surface biotinylation was either fluorescently detected after incubation with Cy3-streptavidin (top panels), or bacteria were captured after incubation with streptavidin-coated magnetic beads (bottom panels). Fluorescence levels are adjusted above background detected for cells grown in the presence of KDO and methionine.
Beyond identification of living cells, this method has the potential to discriminate between gram positive and gram negative bacteria as functionalized KDO will only be incorporated into LPS of gram negative cells, whereas HPG should not discriminate between the two. This method may also be used to capture living bacteria via incorporation of HPG, and fluorescent identification of gram negative strains via incorporation of KDO-azide. […] Methionine biosynthesis was then inhibited and either methionine or HPG were added to the cultures and incubated for 16 hours. Cells were reacted with biotin-azide to label surface proteins containing HPG, then reacted with Alexa488-alkyne to fluorescently label LPS containing KDO-azide. […]

The test system of a further experiment is L. innocua. The experiment in a line: Capture of HPG-labeled, biotin-azide reacted L. innocua on streptavidin-coated magnetic beads. The experiment is classed as cell-based, Listeria innocua. The note with it: biotin-azide 100 μM, M280 Dynabeads 1 hour.
Source text: as §1, §2

Experiment [4] deals with verotoxin producing E. coli (VTEC) cells. In kind it is cell-based.
The subject of experiment [5] is VTEC strain of serotype O45:H2. Description: Metabolic labeling of VTEC O45:H2 with KDO-alkyne, Alexa488-azide, fluorescence microscopy. In kind it is cell-based, E. coli. The note with it: overnight culture. An excerpt:
Metabolic labeling of VTEC was also investigated to determine if this labeling strategy could be applied to the detection of live pathogenic bacteria. […] Therefore, targeting LPS of bacteria with a KDO analogue can also be used to identify contamination by living pathogenic strains of E. coli.

In the case of `C#CCCC(N)C(=O)O` (stereo not drawn) [HPG, homopropargylglycine], the “fluorescence labeling after reaction with Alexa488-azide” value was “labeled efficiently” in experiment [1] and “fluorescently labeled” in experiment [4]. Moreover, the “capture on streptavidin coated beads via incorporated HPG” value was “multiple E. coli and L. innocua cells bound to the streptavidin coated beads” in the experiment on BL21 E. coli [2]; “multiple E. coli and L. innocua cells bound to the streptavidin coated beads” in the experiment on L. innocua. Moreover, the “identification of captured bacteria as living by fluorescence” value with K12 E. coli is given as “identified as being alive”. Besides, in the experiment on BL21 E. coli [3], the “dual metabolic label incorporation” value is reported as “capable of incorporating both”. Also, the “contact time after which metabolic label incorporation is detected” value in experiment [4] turned out to be 30 min.
For the compound `C#CCCC(=O)NC[C@@H](O)C1OC(O)(C(=O)O)C[C@@H](O)[C@H]1O` (stereo partly drawn) [KDO-alkyne], the “incorporation into LPS molecules” value in experiment [5] was “capable of incorporating KDO-alkyne into LPS molecules”.
Consider `[N-]=[N+]=NC[C@@H](O)C1OC(O)(C(=O)O)C[C@@H](O)[C@H]1O` (stereo partly drawn) [KDO-azide], for which the “dual metabolic label incorporation” value with BL21 E. coli [3] was “capable of incorporating both”.
